# Data as given in ChEMBL document CHEMBL2311313, “Inhibitors of HIV-1 attachment. Part 11: the discovery and structure-activity relationships associated with 4,6-diazaindole cores” (Bioorg Med Chem Lett, 2013).
# Legend:
# [1] = Therapeutic index, ratio of CC50 for human HeLa cells expressing CD4 and CCR5 to EC50 for HIV1 JRFL infected in human HeLa cells expressing CD4 and CCR5; type: cell-based; settings: read-out: Ratio CC50/EC50
# [2] = Cytotoxicity against human HeLa cells expressing CD4 and CCR5 assessed as cell viability after 6 days by XTT assay; type: cell-based
# [3] = tested on: Human immunodeficiency virus 1; assay: Antiviral activity against HIV1 JRFL infected in human HeLa cells expressing CD4 and CCR5 after 3 days by luciferase reporter gene assay; type: functional, organism-based; settings: Human immunodeficiency virus 1, JRFL, 72 h
# [4] = Solubility of the compound in amorphous form at pH 6.5; type: physicochemical; settings: buffer
# [5] = AUC in rat at 5 mg/kg, po; type: ADME, organism-based; set-up: dose 5 mg/kg, route oral; settings: plasma
# [6] = Clearance in rat at 1 mg/kg, iv; type: ADME, organism-based; set-up: dose 1 mg/kg, route intravenous; settings: in vivo
# [7] = Oral bioavailability in rat at 5 mg/kg; type: ADME, organism-based; settings: in vivo
SMILES,EC50 [3],CC50 at 144 h [2],other results
O=C(C(=O)N1CCN(C(=O)c2ccccc2)CC1)c1c[nH]c2c(-c3cnccn3)ncnc12,0.25 nM,78000 nM,selectivity ratio [1]: > 15000
O=C(C(=O)N1CCN(C(=O)c2ccccc2)CC1)c1c[nH]c2c(-c3ccncc3)ncnc12,12 nM,> 300000 nM,
COc1ncnc2c(C(=O)C(=O)N3CCN(C(=O)c4ccccc4)CC3)c[nH]c12,4.1 nM,> 300000 nM,
O=C(C(=O)N1CCN(C(=O)c2ccccc2)CC1)c1c[nH]c2c(-c3cncnc3)ncnc12,2.7 nM,> 300000 nM,
CCOc1ncnc2c(C(=O)C(=O)N3CCN(C(=O)c4ccccc4)CC3)c[nH]c12,12 nM,> 150000 nM,
O=C(C(=O)N1CCN(C(=O)c2ccccc2)CC1)c1c[nH]c2c(-c3cc[nH]n3)ncnc12,0.31 nM,> 300000 nM,
COc1ccccc1-c1ccn(-c2ncnc3c(C(=O)C(=O)N4CCN(C(=O)c5ccccc5)CC4)c[nH]c23)n1,0.36 nM,,solubility [4]: 4 µg/mL
O=C(C(=O)N1CCN(C(=O)c2ccccc2)CC1)c1c[nH]c2c(-n3ccc(-c4cccc(C(F)(F)F)c4)n3)ncnc12,0.37 nM,,solubility [4]: 60 µg/mL
O=C(C(=O)N1CCN(C(=O)c2ccccc2)CC1)c1c[nH]c2c(-c3ccnnc3)ncnc12,5.2 nM,> 300000 nM,
O=C(C(=O)N1CCN(C(=O)c2ccccc2)CC1)c1c[nH]c2c(Cl)ncnc12,11 nM,> 300000 nM,
O=C(C(=O)N1CCN(C(=O)c2ccccc2)CC1)c1c[nH]c2c(-c3cccnc3)ncnc12,1.3 nM,> 300000 nM,
Cc1cc(-c2ncnc3c(C(=O)C(=O)N4CCN(C(=O)c5ccccc5)CC4)c[nH]c23)on1,0.88 nM,177000 nM,
O=C(C(=O)N1CCN(C(=O)c2ccccc2)CC1)c1c[nH]c2c(-c3ccccn3)ncnc12,0.34 nM,6000 nM,selectivity ratio [1]: > 15000
CN1CCN(c2ncnc3c(C(=O)C(=O)N4CCN(C(=O)c5ccccc5)CC4)c[nH]c23)CC1,> 5000 nM,> 300000 nM,
N#Cc1ncnc2c(C(=O)C(=O)N3CCN(C(=O)c4ccccc4)CC3)c[nH]c12,44 nM,> 300000 nM,

# Further lines, with some results ahead:
EC50 [3],SMILES,CC50 at 144 h [2],other results
4.8 nM,CNCCCCNC(=O)c1ccn(-c2ncnc3c(C(=O)C(=O)N4CCN(C(=O)c5ccccc5)CC4)c[nH]c23)n1,,solubility [4]: 1730 µg/mL
0.15 nM,O=C(C(=O)N1CCN(C(=O)c2ccccc2)CC1)c1c[nH]c2c(-n3ccc(-c4ccccn4)n3)ncnc12,,solubility [4]: 8 µg/mL
0.15 nM,Cc1ccn(-c2ncnc3c(C(=O)C(=O)N4CCN(C(=O)c5ccccc5)CC4)c[nH]c23)n1,> 300000 nM,AUC [5]: 17.8 µM·h; clearance [6]: 4.8 mL/min/kg; solubility [4]: 8 µg/mL; bioavailability [7]: 45%
0.28 nM,O=C(C(=O)N1CCN(C(=O)c2ccccc2)CC1)c1c[nH]c2c(-n3ccc(-c4ccccc4)n3)ncnc12,,solubility [4]: 1 µg/mL
1.1 nM,Cc1cnn(-c2ncnc3c(C(=O)C(=O)N4CCN(C(=O)c5ccccc5)CC4)c[nH]c23)c1,> 300000 nM,
2 nM,CN(C)C(=O)c1ccn(-c2ncnc3c(C(=O)C(=O)N4CCN(C(=O)c5ccccc5)CC4)c[nH]c23)n1,,
0.24 nM,COc1ccc(-c2ccn(-c3ncnc4c(C(=O)C(=O)N5CCN(C(=O)c6ccccc6)CC5)c[nH]c34)n2)cc1,,solubility [4]: 1 µg/mL
0.76 nM,O=C(O)c1ccn(-c2ncnc3c(C(=O)C(=O)N4CCN(C(=O)c5ccccc5)CC4)c[nH]c23)n1,,solubility [4]: 1070 µg/mL
11 nM,O=C(C(=O)N1CCN(C(=O)c2ccccc2)CC1)c1c[nH]c2c(-n3nccn3)ncnc12,> 150000 nM,
18 nM,CC(=O)c1ncnc2c(C(=O)C(=O)N3CCN(C(=O)c4ccccc4)CC3)c[nH]c12,> 300000 nM,
0.36 nM,Cc1ncn(-c2ncnc3c(C(=O)C(=O)N4CCN(C(=O)c5ccccc5)CC4)c[nH]c23)n1,> 150000 nM,AUC [5]: 4.9 µM·h; clearance [6]: 7.6 mL/min/kg; bioavailability [7]: 19%
0.1 nM,O=C(C(=O)N1CCN(C(=O)c2ccccc2)CC1)c1c[nH]c2c(-n3cncn3)ncnc12,> 300000 nM,AUC [5]: 0.83 µM·h; clearance [6]: 35 mL/min/kg; bioavailability [7]: 15%
< 0.16 nM,O=C(C(=O)N1CCN(C(=O)c2ccccc2)CC1)c1c[nH]c2c(-n3ccc(-c4ccc(F)cc4)n3)ncnc12,,
